# Tested on: LNCaP, C4-2, and Rv1 cells
# Experiment: CyQuant growth assay 7 days after viral transduction
# Assay type: cell-based, human
# Conditions: 0.05 nM R1881; LNCaP, C4-2, and Rv1 cells; day 7
# Text: FIG. 5A illustrates the gene structure of LCK and location of each shRNA targeting LCK. MISSION shRNAs targeting human LCK (NM_005356) and the pLKO vector control were purchased from ThermoFisher. Each shRNA was validated for efficiency of LCK or HULLK knockdown in Jurkat and PCa cells by qPCR. (C) The results of CyQuant Assay measuring DNA content as a surrogate for cell number 7 days after shRNA transduction is shown in FIG. 5C. Growth was compared to untreated empty vector control and the values were averaged across biological replicates. Error bars represent standard error of the mean. The relative effect of four independent shRNAs on cell growth in LNCaP, C42, and Rv1 cells in the absence or presence of 0.05 nM R1881, n=3. FIG. 5D plots the data for the relative effect of HULLK overexpression on cell growth in LNCaP, C42, and Rv1 cells in the absence or presence of 0.05 nM R1881, n=3. Statistical analysis was performed using ANOVA and Tukey test.
# CyQuant Growth Assays: Assay was performed as previously described (18). Briefly, shRNA or pLKO control virus was added to 1 μg/ml fibronectin-coated 96 well plates. Cells were plated in RPMI-1640 plus 5% CSS with vehicle, 0-0.05 nM R1881, and/or 10 μM Enzalutamide (Selleck Chemicals). Quantification was performed on Day 7 using a BioTek Synergy 2 plate reader.
# To explore the functional role of HULLK in PCa, the effects of HULLK knockdown on PCa cell growth was examined. LNCaP, C4-2, and Rv1 cells were transduced with lentiviral particles expressing four independent shRNAs specific for LCK or pLKO empty vector control in the presence or absence of 0.05 nM R1881. Two shRNAs were targeting the carboxy-terminal of LCK (shLCK-3 and shLCK-4) and should decrease HULLK levels; and two shRNAs were directed toward the amino-terminal (shLCK-1 and shLCK-2) and should not affect HULLK expression (FIG. 5A). […] As a control, all four shRNAs efficiently knocked LCK down 60-90% in Jurkat cells. Seven days following viral transduction, cellular growth was measured using CyQuant, which uses DNA content as a surrogate for cell number. In the absence of hormone, the four shRNAs had no dramatic effects on growth in LNCaP or C4-2 cells (FIG. 5C).
# The complement experiment of evaluating the effects of overexpressing HULLK on cell growth was also performed. LNCaP, C4-2, and Rv1 cells were transduced with lentivirus expressing either vector or HULLK constructs in the presence or absence of 0.05 nM R1881, and proliferation was calculated seven days following viral transduction.
smiles,measurement,value
C[C@]1(O)CC[C@H]2[C@@H]3CCC4=CC(=O)CCC4=C3C=C[C@@]21C [R1881],cell growth of vector-expressing control cells exposed to R1881,expected increase in cell growth
